# Patent US8962687B2, “Method of treating liver disorders” (priority 2012, dated 2015)
# “Also recorded” adds a separate entry of the source.
# How the values were obtained:
# Assay type in all cases: in vivo, C57BL/6 mice
# STAM mice [1] = experiment: HE staining and NAFLD Activity Score (NAS) in STAM model of NASH; design: key to NAS (mean ± SD): NAFLD Activity Score per Kleiner et al. 2005 criteria; details: for Steatosis score 1, number of mice: score 1 = 5-33%; for Lobular inflammation score 1, number of mice: score 1 = <2 foci/200x; for Hepatocyte ballooning score 1, number of mice: score 1 = Few balloon cells; for Lobular inflammation score 2, number of mice: score 2 = 2-4 foci/200x; for Hepatocyte ballooning score 2, number of mice: score 2 = Many cells/prominent ballooning; for Hepatocyte ballooning score 0, number of mice: score 0 = None
# Description: STAM™ is a model for non-alcoholic steatohepatitis (NASH), symtoms thereof, and related liver disorders, created by the combination of chemical and dietary interventions in C57BL/6 mice. […] For HE staining, sections were cut from paraffin blocks of left lateral liver tissue prefixed in Bouin's solution and stained with Lillie-Mayer's Hematoxylin (Muto Pure Chemicals, Japan) and eosin solution (Wako Pure Chemical Industries). NAS was calculated according to the criteria of Kleiner (Kleiner D E. et al., Hepatology, 2005; 41:1313). To visualize collagen deposition, Bouin's fixed left lateral liver sections were stained using picro-Sirius red solution (Waldeck, Germany).
# STAM mice [2] = experiment: Sirius red staining, fibrosis area in STAM model; details: for fibrosis area (Sirius red-positive area): mean±SD
# Description: For HE staining, sections were cut from paraffin blocks of left lateral liver tissue prefixed in Bouin's solution and stained with Lillie-Mayer's Hematoxylin (Muto Pure Chemicals, Japan) and eosin solution (Wako Pure Chemical Industries). NAS was calculated according to the criteria of Kleiner (Kleiner D E. et al., Hepatology, 2005; 41:1313). To visualize collagen deposition, Bouin's fixed left lateral liver sections were stained using picro-Sirius red solution (Waldeck, Germany). For quantitative analysis of fibrosis area, inflammation area, and semi-quantification of α-SMA, bright field images of Sirius red-stained, F4/80 and α-SMA-immunostained sections were captured around the central vein using a digital camera (DFC280; Leica, Germany) at 200-fold magnification, and the positive areas in 5 fields/section were measured using ImageJ software (National Institute of Health, USA).
# STAM mice [3] = experiment: F4/80 immunostaining, inflammation area in STAM model; details: mean±SD
# Description: (§1) For immunohistochemistry, sections were cut from frozen left lateral liver tissues embedded in Tissue-Tek O.C.T. compound and fixed in acetone. Endogenous peroxidase activity was blocked using 0.03% H2O2 for 5 minutes, followed by incubation with Block Ace (Dainippon Sumitomo Pharma, Japan) for 10 minutes. The sections were incubated with a 200-fold dilution of anti-α-SMA (Epitomics, USA) or anti-F4/80 antibody (BMA Biomedicals, Switzerland) 1 hour at room temperature. […] For quantitative analysis of fibrosis area, inflammation area, and semi-quantification of α-SMA, bright field images of Sirius red-stained, F4/80 and α-SMA-immunostained sections were captured around the central vein using a digital camera (DFC280; Leica, Germany) at 200-fold magnification, and the positive areas in 5 fields/section were measured using ImageJ software (National Institute of Health, USA).
# STAM mice [4] = experiment: Alpha-SMA immunostaining in STAM model; details: mean±SD
# Description: as §1
# STAM mice [5] = experiment: Liver weight and liver-to-body weight ratio in STAM model; details: mean±SD
# Description: NASH was induced in 50 male mice by a single subcutaneous injection of 200 μg streptozotocin (STZ, Sigma-Aldrich, USA) solution 2 days after birth and feeding with high fat diet (HFD, 57 kcal % fat, cat#: HFD32, CLEA Japan, Japan) after 4 weeks of age. Ten male littermates, fed with normal diet and without STZ treatment, were used for the normal group. Vehicle, MN-001, and Telmisartan were administered by oral route in a volume of 10 mL/kg. MN-001 was administered at doses of 10, 30, and 100 mg/kg once daily. Telmisartan was administered at dose of 10 mg/kg once daily.
# STAM mice [6] = experiment: Whole blood glucose and plasma ALT/AST in STAM model; details: mean±SD; for Whole blood glucose: non-fasting
# Description: Non-fasting blood glucose was measured in whole blood using […], Japan). For plasma biochemistry, blood was collected in polypropylene tubes with anticoagulant (Novo-Heparin, Mochida Pharmaceutical, Japan) and centrifuged at 1,000×g for 15 minutes at 4° C. The supernatant was collected and stored at -80° until use. Plasma ALT and AST levels were measured by FUJI DRI-CHEM 7000 (Fujifilm, Japan).
# STAM mice [7] = experiment: Liver hydroxyproline content in STAM model; details: mean±SD
# Description: To quantify liver hydroxyproline content, frozen liver samples (32-40 mg) were processed by an alkaline-acid hydrolysis method as follows. Liver samples were defatted with 100% acetone, dried in the air, dissolved in 2N NaOH at 65° C., and autoclaved at 121° C. for 20 minutes. The lysed samples (400 μL) were acid-hydrolyzed with 400 μL of 6N HCl at 121° C. for 20 minutes, and neutralized with 400 μL of 4N NaOH containing 10 mg/mL activated carbon. AC buffer (2.2M acetic acid/0.48M citric acid, 400 μL) was added to the samples, followed by centrifugation to collect the supernatant. A standard curve of hydroxyproline was constructed with serial dilutions of trans-4-hydroxy-L-proline (Sigma-Aldrich) starting at 16 μg/mL. The prepared samples and standards (each 400 μL) were mixed with 400 μL chloramine T solution (Wako Pure Chemical Industries) and incubated for 25 minutes at room temperature. […] After samples were cooled on ice and centrifuged to remove precipitates, the optical density of each supernatant was measured at 560 nm. The concentrations of hydroxyproline were calculated from the hydroxyproline standard curve. Protein concentrations of liver samples were determined using a BCA protein assay kit (Thermo Fisher Scientific, USA) and used to normalize the calculated hydroxyproline values. Liver hydroxyproline levels were expressed as μg per mg protein.
# Alpha-SMA mRNA = experiment: Quantitative RT-PCR of liver, Alpha-SMA; details: relative, mean±SD
# Description: (§2) Total RNA was extracted from liver samples using RNAiso (Takara Bio, Japan) according to the manufacturer's instructions. One μg of RNA was reverse-transcribed using a reaction mixture containing 4.4 mM MgCl2 (Roche, Switzerland), 40 U RNase inhibitor (Toyobo, Japan), 0.5 mM dNTP (Promega, USA), 6.28 μM random hexamer (Promega), 5× first strand buffer (Promega), 10 mM dithiothreitol (Invitrogen) and 200 U MMLV-RT (Invitrogen) in a final volume of 20 μL. The reaction was carried out for 1 hour at 37° C., followed by 5 minutes at 99° C. Real-time PCR was performed using real-time PCR DICE and SYBR premix Taq (Takara Bio). To calculate the relative mRNA expression level, the expression of each gene was normalized to that of reference gene 36B4 (gene symbol: Rp1p0). Information of PCR-primer sets and the plate layout was described in Table 1.
# TNF-α mRNA = experiment: Quantitative RT-PCR of liver, TNF-α; details: relative, mean±SD
# Description: as §2
# CCR2 mRNA = experiment: Quantitative RT-PCR of liver, CCR2; details: relative, mean±SD
# Description: as §2
# MCP-1 mRNA = experiment: Quantitative RT-PCR of liver, MCP-1; details: relative, normalized to 36B4, 30 mg/kg oral once daily, 6-9 wks (MN-001-middle group), mean±SD
# Description: as §2
# TIMP-1 mRNA = experiment: Quantitative RT-PCR of liver, TIMP-1; details: relative, mean±SD
# Description: as §2
# [8] = 10 mg/kg oral once daily, 6-9 wks of age (MN-001-low; Telmisartan groups)
# [9] = 10 mg/kg oral once daily, 6-9 wks, n 10
# [10] = 30 mg/kg oral once daily, 6-9 wks of age (MN-001-middle group)
# [11] = 30 mg/kg oral once daily, 6-9 wks, n 10
# [12] = 100 mg/kg oral once daily, 6-9 wks of age (MN-001-high group)
# [13] = 100 mg/kg oral once daily, 6-9 wks, n 10
# [14] = normalized to 36B4, 10 mg/kg oral once daily, 6-9 wks (MN-001-low; Telmisartan groups)
# [15] = normalized to 36B4, 30 mg/kg oral once daily, 6-9 wks (MN-001-middle group)
# [16] = normalized to 36B4, 100 mg/kg oral once daily, 6-9 wks (MN-001-high group)
smiles,measurement,setting,value
CCCc1c(SCCCOc2ccc(C(C)=O)c(OCCCC(=O)O)c2CCC)ccc(C(C)=O)c1O [MN-001],NAS (mean ± SD),STAM mice [1]; [8],4.7±0.5
same,"hepatocellular ballooning, HE-stained liver sections, compared with Vehicle",STAM mice [1]; [8],moderate decrease
same,"Steatosis score 1, number of mice",STAM mice [1]; [9],10
same,"Lobular inflammation score 1, number of mice",STAM mice [1]; [9],1
same,"Hepatocyte ballooning score 1, number of mice",STAM mice [1]; [9],2
same,"Lobular inflammation score 2, number of mice",STAM mice [1]; [9],9
same,"Hepatocyte ballooning score 2, number of mice",STAM mice [1]; [9],8
same,NAS (mean ± SD),STAM mice [1]; [10],4.7±0.5
same,"hepatocellular ballooning, HE-stained liver sections, compared with Vehicle",STAM mice [1]; [10],moderate decrease
same,"Steatosis score 1, number of mice",STAM mice [1]; [11],10
same,"Hepatocyte ballooning score 1, number of mice",STAM mice [1]; [11],3
same,"Lobular inflammation score 2, number of mice",STAM mice [1]; [11],10
same,"Hepatocyte ballooning score 2, number of mice",STAM mice [1]; [11],7
same,"hepatocellular ballooning, HE-stained liver sections / ballooning score, compared with Vehicle",STAM mice [1]; [12],significantly reduced; also recorded: marked improvements
same,"inflammatory cell infiltration, HE-stained liver sections, compared with Vehicle",STAM mice [1]; [12],moderate improvements
same,"Lobular inflammation score 0, number of mice","STAM mice [1]; 100 mg/kg oral once daily, 6-9 wks, score 0 = No foci, n 10",1
same,"Hepatocyte ballooning score 0, number of mice",STAM mice [1]; [13],2
same,"Steatosis score 1, number of mice",STAM mice [1]; [13],10
same,"Lobular inflammation score 1, number of mice",STAM mice [1]; [13],4
same,"Hepatocyte ballooning score 1, number of mice",STAM mice [1]; [13],7
same,"Lobular inflammation score 2, number of mice",STAM mice [1]; [13],5
same,"Hepatocyte ballooning score 2, number of mice",STAM mice [1]; [13],1
same,fibrosis area (Sirius red-positive area),STAM mice [2]; [8],0.76±0.19%
same,fibrosis area (Sirius red-positive area),STAM mice [2]; [10],0.76±0.16%
same,fibrosis area (Sirius red-positive area),STAM mice [2]; [12],0.69±0.18%
same,fibrosis area compared with Vehicle,"STAM mice [2]; MN-001 treatment groups together (10, 30, 100 mg/kg oral once daily, 6-9 wks), dose dependent manner",significantly reduced; also recorded: significantly decreased
same,inflammation area (F4/80-positive area),STAM mice [3]; [10],6.33±0.84%
same,inflammation area (F4/80-positive area),STAM mice [3]; [12],6.31±0.76%
same,α-SMA-positive area,STAM mice [4]; [10],0.11±0.04%
same,Mean liver weight,STAM mice [5]; [8],1567 ± 165 mg
same,Mean liver weight,STAM mice [5]; [12],1480 ± 145 mg
same,Plasma ALT,STAM mice [6]; [8],71±60 U/L
same,Plasma ALT,STAM mice [6]; [10],48±23 U/L
same,Plasma ALT,STAM mice [6]; [12],54±11 U/L
same,Whole blood glucose,STAM mice [6]; [8],614 ± 98 mg/dL
same,Whole blood glucose,STAM mice [6]; [10],609 ± 78 mg/dL
same,Whole blood glucose,STAM mice [6]; [12],671 ± 124 mg/dL
same,Liver hydroxyproline content,STAM mice [7]; [8],0.78±0.34 μg/mg protein
same,Liver hydroxyproline content,STAM mice [7]; [10],0.63±0.12 μg/mg protein
same,Alpha-SMA mRNA expression levels,Alpha-SMA mRNA; [14],36.8±111
same,Alpha-SMA mRNA expression levels,Alpha-SMA mRNA; [15],3.13±2.52
same,Alpha-SMA mRNA expression levels,Alpha-SMA mRNA; [16],5.78±3.45
same,TNF-α mRNA expression levels,TNF-α mRNA; [14],3.42±2.53
same,TNF-α mRNA expression levels,TNF-α mRNA; [15],7.97±9.30
same,TNF-α mRNA expression levels,TNF-α mRNA; [16],9.74±3.34
same,CCR2 mRNA expression levels,CCR2 mRNA; [16],3.86±1.43
same,MCP-1 mRNA expression levels,MCP-1 mRNA,4.00±7.78
same,TIMP-1 mRNA expression levels,TIMP-1 mRNA; [16],10.6±5.83
"CCCc1nc2c(C)cc(-c3nc4ccccc4n3C)cc2n1Cc1ccc(-c2ccccc2C(=O)O)cc1 [Telmisartan, reference compound]","hepatocellular ballooning, HE-stained liver sections, compared with Vehicle",STAM mice [1]; [8],marked improvements
same,"inflammatory cell infiltration, HE-stained liver sections, compared with Vehicle","STAM mice [1]; 10 mg/kg oral once daily, 6-9 wks of age (Telmisartan group)",marked improvements
same,"Steatosis score 0, number of mice","STAM mice [1]; 10 mg/kg oral once daily, 6-9 wks, score 0 = <5%, n 10",1
same,"Hepatocyte ballooning score 0, number of mice",STAM mice [1]; [9],4
same,"Steatosis score 1, number of mice",STAM mice [1]; [9],9
same,"Lobular inflammation score 1, number of mice",STAM mice [1]; [9],10
same,"Hepatocyte ballooning score 1, number of mice",STAM mice [1]; [9],6
same,α-SMA-positive area,STAM mice [4]; [8],0.12±0.05%
same,Plasma AST,STAM mice [6]; [8],190±28 U/L
same,TNF-α mRNA expression levels,TNF-α mRNA; [14],8.35±2.84
same,CCR2 mRNA expression levels,CCR2 mRNA; [14],3.21±0.85
same,TIMP-1 mRNA expression levels,TIMP-1 mRNA; [14],7.82±2.62
